Measurements reported in patent US7247640B2, “Medicament for treatment of bone marrow suppression, for treatment of infectious diseases and for increasing the number of leukocytes” (Nippon Kayaku Kabushiki Kaisha, priority 2001, dated 2007).

Assays:
Format in all cases: in vivo, ICR strain male mice (Crj:CD-1)
leukocytes [1] = assay: Test for evaluating an efficacy on drug-induced leukopenia (cyclophosphamide); settings: for number of leukocytes, percentage based on Day 0 / number of leukocytes (mean ± S.D): cyclophosphamide 200 mg/kg i.p. Day 0
Procedure: The effect of sulphostin [3(S)-amino-1-((R)-amino(sulfoamino)phosphinyl)-2-piperidone] on drug-induced leukopenia was evaluated according to the method of Okabe et al. (Yakuri to Chiryo (Japanese Pharmacology and Therapeutics) Vol. 19, No. 6, p. 55, 1991).
ICR strain male mice (Crj:CD-1) aged 8 weeks were used in the test. The animals were divided into three groups of 3 or 4 animals per group.
On Day 0, cyclophosphamide was intraperitoneally administered once to all the groups in a dose of 200 mg/kg. From the next day, the following were intravenously and repeatedly administered to the groups, respectively, for 5 days (Day 1 to 5); the first group (a control group): physiological saline, the second group: sulphostin (30 mg/kg/day), and the third group: sulphostin (100 mg/kg/day). Blood was drawn from the posterior-eyehole venous plexus on Day 0 (before the administration of cyclophosphamide) and Days 2, 4, 6 and 8 (the blood drawing, however, was carried out only on Days 0, 4 and 6 in the case of the second group), and the number of leukocytes was periodically measured to investigate the leukocyte-increasing effect of sulphostin relative to a decrease of leukocytes caused by cyclophosphamide.
The data are expressed as the mean±S.D and percentages based on the number of leukocytes on Day 0. ND refers to no data.

G-CSF = assay: Test for investigating the increase of G-CSF concentration in normal mice (plasma, mouse G-CSF ELISA); settings: blood on day after completion
Procedure: ICR strain male mice (Crj:CD-1) aged 7 weeks were used in the test. The animals were divided into 4 groups of 5 animals per group. The following were intravenously and repeatedly administered to the groups, respectively, for 5 days; the first group: physiological saline as solvent, the second group: sulphostin (10 mg/kg/day), the third group: sulphostin (30 mg/kg/day), and the fourth group: sulphostin (90 mg/kg/day). On the day subsequent to completion of the administration, blood was drawn from the abdominal aorta under anesthesia. The blood obtained was centrifuged to collect plasma, and G-CSF was measured by the use of a mouse G-CSF ELISA measuring kit (R & D SYSTEMS Inc.).

leukocytes [2] = assay: Test for investigating the increase of leukocytes in normal mice; settings: blood on day after last administration
Procedure: ICR strain male mice (Crj:CD-1) aged 7 weeks were used in the test. The animals were divided into 5 groups of 4 animals per group. The following were intravenously and repeatedly administered to the groups, respectively, for 5 days; the first group: physiological saline as solvent, the second group: sulphostin (2 mg/kg/day), the third group: sulphostin (10 mg/kg/day), the fourth group: sulphostin (50 mg/kg/day), and the fifth group: sulphostin (250 mg/kg/day). On the day subsequent to the last day of the administration period, blood was drawn from the abdominal aorta under anesthesia and the number of leukocytes was measured.

[3] = sulphostin 10 mg/kg/day i.v. for 5 days

N[C@H]1CCCN([P@@](N)(=O)NS(=O)(=O)O)C1=O [Sulphostin, 3(S)-amino-1-((R)-amino(sulfoamino)-phosphinyl)-2-piperidone]
number of leukocytes, percentage based on Day 0 (leukocytes [1]; sulphostin 30 mg/kg/day i.v. Day 1 to 5, Day 0 (before cyclophosphamide)): 100%
number of leukocytes (mean ± S.D) (leukocytes [1]; sulphostin 30 mg/kg/day i.v. Day 1 to 5, Day 0 (before cyclophosphamide), n = 3): 44 ± 7.1 ×100/millimeter cube
number of leukocytes, percentage based on Day 0 (leukocytes [1]; sulphostin 30 mg/kg/day i.v. Day 1 to 5, Day 4): 30%
number of leukocytes (mean ± S.D) (leukocytes [1]; sulphostin 30 mg/kg/day i.v. Day 1 to 5, Day 4, n = 3): 13 ± 12.5 ×100/millimeter cube
number of leukocytes, percentage based on Day 0 (leukocytes [1]; sulphostin 30 mg/kg/day i.v. Day 1 to 5, Day 6): 95%
number of leukocytes (mean ± S.D) (leukocytes [1]; sulphostin 30 mg/kg/day i.v. Day 1 to 5, Day 6, n = 3): 42 ± 14.5 ×100/millimeter cube
number of leukocytes, percentage based on Day 0 (leukocytes [1]; sulphostin 100 mg/kg/day i.v. Day 1 to 5, Day 0 (before cyclophosphamide)): 100%
number of leukocytes (mean ± S.D) (leukocytes [1]; sulphostin 100 mg/kg/day i.v. Day 1 to 5, Day 0 (before cyclophosphamide), n = 4): 38 ± 17.2 ×100/millimeter cube
number of leukocytes, percentage based on Day 0 (leukocytes [1]; sulphostin 100 mg/kg/day i.v. Day 1 to 5, Day 2): 55%
number of leukocytes (mean ± S.D) (leukocytes [1]; sulphostin 100 mg/kg/day i.v. Day 1 to 5, Day 2, n = 4): 21 ± 5.1 ×100/millimeter cube
number of leukocytes, percentage based on Day 0 (leukocytes [1]; sulphostin 100 mg/kg/day i.v. Day 1 to 5, Day 4): 26%
number of leukocytes (mean ± S.D) (leukocytes [1]; sulphostin 100 mg/kg/day i.v. Day 1 to 5, Day 4, n = 4): 10 ± 6.3 ×100/millimeter cube
number of leukocytes, percentage based on Day 0 (leukocytes [1]; sulphostin 100 mg/kg/day i.v. Day 1 to 5, Day 6): 126%
number of leukocytes (mean ± S.D) (leukocytes [1]; sulphostin 100 mg/kg/day i.v. Day 1 to 5, Day 6, n = 4): 48 ± 23.8 ×100/millimeter cube
number of leukocytes, percentage based on Day 0 (leukocytes [1]; sulphostin 100 mg/kg/day i.v. Day 1 to 5, Day 8): 668%
number of leukocytes (mean ± S.D) (leukocytes [1]; sulphostin 100 mg/kg/day i.v. Day 1 to 5, Day 8, n = 4): 254 ± 75.5 ×100/millimeter cube
restoration of the number of leukocytes to the initial value after the administration of cyclophosphamide, time required (leukocytes [1]; sulphostin-treated groups (30 and 100 mg/kg/day i.v.), control group requires 8 days): 6 days
G-CSF level higher than that of the control group by factor (G-CSF; [3]): 1.03
G-CSF level higher than that of the control group by factor (G-CSF; sulphostin 30 mg/kg/day i.v. for 5 days): 6.1
G-CSF level higher than that of the control group by factor (G-CSF; sulphostin 90 mg/kg/day i.v. for 5 days): 7.0
number of leukocytes larger than that of the control group by factor (leukocytes [2]; sulphostin 2 mg/kg/day i.v. for 5 days): 1.4
number of leukocytes larger than that of the control group by factor (leukocytes [2]; [3]): 1.9
number of leukocytes larger than that of the control group by factor (leukocytes [2]; sulphostin 50 mg/kg/day i.v. for 5 days): 4.9
number of leukocytes larger than that of the control group by factor (leukocytes [2]; sulphostin 250 mg/kg/day i.v. for 5 days): 5.9
